How the values were obtained:
[1] = test system: 22RV1 prostate cancer cells; assay: Cell viability of prostate cancer 22RV1 cells after 72 hours treatment; type: cell-based; settings: Homo sapiens
[2] = test system: PC3 prostate cancer cells; assay: Cell viability of prostate cancer PC3 cells after 72 hours treatment; type: cell-based; settings: Homo sapiens; for viability at 2.5 µM: PC-3, 2.5 μM; for viability at 5 µM: PC-3, 5 μM; for viability at 10 µM: PC-3, 10 μM; for viability at 20 µM: PC-3, 20 μM
Protocol: Effects of compounds LLS42-LLS80 on the viability of PC3 prostate cancer cells after 72 hours of treatment are shown in Table 2 below: […]

| SMILES | viability at 2.5 µM [1] | viability at 5 µM [1] | viability at 10 µM [1] | viability at 2.5 µM [2] | viability at 5 µM [2] | viability at 10 µM [2] | viability at 20 µM [2] |
| --- | --- | --- | --- | --- | --- | --- | --- |
| NC(=O)CC(NCC1CCCCC1)c1ccc2c(c1)nc(-c1ccc(N3CCOCC3)cc1)n2Cc1ccc(Br)cc1 (stereo not drawn) [LLS94, 3-(1-(4-bromobenzyl)-2-(4-morpholinophenyl)-1H-benzo[d]imidazol-5-yl)-3-((cyclohexylmethyl)amino)propanamide] | 3% | 0% | 0% | – | – | – | – |
| CN(C)CCCOc1ccc(-c2nc3cc(C(CC(N)=O)NCC4CCCCC4)ccc3n2Cc2ccc(OC(F)(F)F)cc2)cc1 (stereo not drawn) [LLS89, 3-((cyclohexylmethyl)amino)-3-(2-(4-(3-(dimethylamino)propoxy)phenyl)-1-(4-(trifluoromethoxy)benzyl)-1H-benzo[d]imidazol-5-yl)propanamide] | 1% | 0% | 0% | – | – | – | – |
| NC(=O)CC(NCc1ccc(Cl)c(Cl)c1)c1ccc2c(c1)nc(-c1cccc(OCCN3CCOCC3)c1)n2Cc1ccc(Cl)c(Cl)c1 (stereo not drawn) [LLS87, 3-(1-(3,4-dichlorobenzyl)-2-(3-(2-morpholinoethoxy)phenyl)-1H-benzo[d]imidazol-5-yl)-3-((3,4-dichlorobenzyl)amino)propanamide] | 76% | 56% | 0% | – | – | – | – |
| NC(=O)CC(NCC1CCCCC1)c1ccc2c(c1)nc(-c1ccc(N3CCOCC3)cc1)n2Cc1ccc(Cl)c(C(F)(F)F)c1 (stereo not drawn) [LLS98, 3-(1-(4-chloro-3-(trifluoromethyl)benzyl)-2-(4-morpholinophenyl)-1H-benzo[d]imidazol-5-yl)-3-((cyclohexylmethyl)amino)propanamide] | 40% | 0% | 0% | – | – | – | – |
| NC(=O)CC(NCc1ccc(F)c(F)c1)c1ccc2c(c1)nc(-c1ccc(N(CCO)CCO)cc1)n2Cc1ccc(Cl)c(Cl)c1 (stereo not drawn) [LLS83, 3-(2-(4-(bis(2-hydroxyethyl)amino)phenyl)-1-(3,4-dichlorobenzyl)-1H-benzo[d]imidazol-5-yl)-3-((3,4-difluorobenzyl)amino)propanamide] | 20% | 1% | 0% | – | – | – | – |
| NC(=O)CC(NCC1CCCCC1)c1ccc2c(c1)nc(-c1ccc(N3CCOCC3)cc1)n2Cc1ccc2c(c1)OCO2 (stereo not drawn) [LLS107, 3-(1-(benzo[d][1,3]dioxol-5-ylmethyl)-2-(4-morpholinophenyl)-1H-benzo[d]imidazol-5-yl)-3-((cyclohexylmethyl)amino)propanamide] | 67% | 4% | 0% | – | – | – | – |
| CN1CCN(c2ccc(-c3nc4cc(C(CC(N)=O)NCC5CCCCC5)ccc4n3Cc3ccc(Cl)c(C(F)(F)F)c3)cc2)CC1 (stereo not drawn) [LLS99, 3-(1-(4-chloro-3-(trifluoromethyl)benzyl)-2-(4-(4-methylpiperazin-1-yl)phenyl)-1H-benzo[d]imidazol-5-yl)-3-((cyclohexylmethyl)amino)propanamide] | 1% | 0% | 0% | – | – | – | – |
| NC(=O)CC(NCc1ccc(Cl)c(Cl)c1)c1ccc2c(c1)nc(-c1ccc(N(CCO)CCO)cc1)n2Cc1ccc(C(F)(F)F)cc1 (stereo not drawn) [LLS92, 3-(2-(4-(bis(2-hydroxyethyl)amino)phenyl)-1-(4-(trifluoromethyl)benzyl)-1H-benzo[d]imidazol-5-yl)-3-((3,4-dichlorobenzyl)amino)propanamide] | 74% | 15% | 1% | – | – | – | – |
| NC(=O)CC(NCc1ccncc1)c1ccc2c(c1)nc(-c1ccc(N(CCO)CCO)cc1)n2Cc1ccc(Cl)c(Cl)c1 (stereo not drawn) [LLS84, 3-(2-(4-(bis(2-hydroxyethyl)amino)phenyl)-1-(3,4-dichlorobenzyl)-1H-benzo[d]imidazol-5-yl)-3-((pyridin-4-ylmethyl)amino)propanamide] | 119% | 109% | 138% | – | – | – | – |
| NC(=O)CC(NCc1ccc(Cl)c(Cl)c1)c1ccc2c(c1)nc(-c1ccc(N(CCO)CCO)cc1)n2CCc1ccccn1 (stereo not drawn) [LLS108, 3-(2-(4-(bis(2-hydroxyethyl)amino)phenyl)-1-(2-(pyridin-2-yl)ethyl)-1H-benzo[d]imidazol-5-yl)-3-((3,4-dichlorobenzyl)amino)propanamide] | 89% | 100% | 101% | – | – | – | – |
| NC(=O)CC(NCC1CCCCC1)c1ccc2c(c1)nc(-c1ccc(N3CCOCC3)cc1)n2Cc1cccc2ccccc12 (stereo not drawn) [LLS103, 3-((cyclohexylmethyl)amino)-3-(2-(4-morpholinophenyl)-1-(naphthalen-1-ylmethyl)-1H-benzo[d]imidazol-5-yl)propanamide] | 1% | 0% | 0% | – | – | – | – |
| CN1CCN(c2ccc(-c3nc4cc(C(CC(N)=O)NCc5ccc(Cl)c(Cl)c5)ccc4n3Cc3ccc(Cl)c(Cl)c3)cc2)CC1 (stereo not drawn) [LLS86, 3-(1-(3,4-dichlorobenzyl)-2-(4-(4-methylpiperazin-1-yl)phenyl)-1H-benzo[d]imidazol-5-yl)-3-((3,4-dichlorobenzyl)amino)propanamide] | 45% | 0% | 0% | – | – | – | – |
| CN(C)CCCOc1ccc(-c2nc3cc(C(CC(N)=O)NCC4CCCCC4)ccc3n2Cc2ccc(Br)cc2)cc1 (stereo not drawn) [LLS95, 3-(1-(4-bromobenzyl)-2-(4-(3-(dimethylamino)propoxy)phenyl)-1H-benzo[d]imidazol-5-yl)-3-((cyclohexylmethyl)amino)propanamide] | 22% | 1% | 0% | – | – | – | – |
| COc1cccc(Cn2c(-c3ccc(N(CCO)CCO)cc3)nc3cc(C(CC(N)=O)NCc4ccc5[nH]ncc5c4)ccc32)c1 (stereo not drawn) [LLS59, 3-(((1H-indazol-5-yl)methyl)amino)-3-(2-(4-(bis(2-hydroxyethyl)amino)phenyl)-1-(3-methoxybenzyl)-1H-benzo[d]imidazol-5-yl)propanamide] | – | – | – | 83% | 97% | 90% | 91% |
| CC(=O)OCCN(CCOC(C)=O)c1ccc(-c2nc3cc(C(CC(N)=O)NCc4ccc(-c5ccncc5)cc4)ccc3n2CCCn2ccnc2)cc1 (stereo not drawn) [LLS58Ac, ((4-(1-(3-(1H-imidazol-1-yl)propyl)-5-(3-amino-3-oxo-1-((4-(pyridin-4-yl)benzyl)amino)propyl)-1H-benzo[d]imidazol-2-yl)phenyl)azanediyl)bis(ethane-2,1-diyl) Diacetate] | – | – | – | 100% | 98% | 91% | 83% |
| COc1ccc(CCn2c(-c3ccc(N(CCOC(C)=O)CCOC(C)=O)cc3)nc3cc(C(N)CC(N)=O)ccc32)cc1 (stereo not drawn) [LLS76, ((4-(5-(1,3-diamino-3-oxopropyl)-1-(4-methoxyphenethyl)-1H-benzo[d]imidazol-2-yl)phenyl)azanediyl)bis(ethane-2,1-diyl) Diacetate] | – | – | – | 92% | 86% | 86% | 85% |
| NC(=O)CC(NCc1cccc2ccccc12)c1ccc2c(c1)nc(-c1ccc(N(CCO)CCO)cc1)n2Cc1ccc(OC(F)(F)F)cc1 (stereo not drawn) [LLS63, 3-(2-(4-(bis(2-hydroxyethyl)amino)phenyl)-1-(4-(trifluoromethoxy)benzyl)-1H-benzo[d]imidazol-5-yl)-3-((naphthalen-1-ylmethyl)amino)propanamide] | – | – | – | 80% | 86% | 29% | 0% |
| NC(=O)CC(NCc1ccc(-c2cncnc2)cc1)c1ccc2c(c1)nc(-c1ccc(N(CCO)CCO)cc1)n2Cc1ccc(OC(F)(F)F)cc1 (stereo not drawn) [LLS51, 3-(2-(4-(bis(2-hydroxyethyl)amino)phenyl)-1-(4-(trifluoromethoxy)benzyl)-1H-benzo[d]imidazol-5-yl)-3-((4-(pyrimidin-5-yl)benzyl)amino)propanamide] | – | – | – | 83% | 79% | 99% | 105% |
| COc1ccc(CCn2c(-c3ccc(N(CCOC(C)=O)CCOC(C)=O)cc3)nc3cc(C(CC(N)=O)NCc4ccc5[nH]ncc5c4)ccc32)cc1 (stereo not drawn) [LLS53Ac, ((4-(5-(1-(((1H-indazol-5-yl)methyl)amino)-3-amino-3-oxopropyl)-1-(4-methoxyphenethyl)-1H-benzo[d]imidazol-2-yl)phenyl)azanediyl)bis(ethane-2,1-diyl) Diacetate] | – | – | – | 97% | 94% | 99% | 101% |
| COc1cc(CNC(CC(N)=O)c2ccc3c(c2)nc(-c2ccc(N(CCO)CCOC(C)=O)cc2)n3C(C)C)cc(Br)c1OC (stereo not drawn) [LLS43, 2-((4-(5-(3-amino-1-((3-bromo-4,5-dimethoxybenzyl)amino)-3-oxopropyl)-1-isopropyl-1H-benzo[d]imidazol-2-yl)phenyl)(2-hydroxyethyl)amino)ethyl Acetate] | – | – | – | 105% | 102% | 101% | 105% |
| COc1ccc(CCn2c(-c3ccc(N(CCOC(C)=O)CCOC(C)=O)cc3)nc3cc(C(CC(N)=O)NCc4ccc5[nH]ccc5c4)ccc32)cc1 (stereo not drawn) [LLS69Ac, ((4-(5-(1-(((1H-indol-5-yl)methyl)amino)-3-amino-3-oxopropyl)-1-(4-methoxyphenethyl)-1H-benzo[d]imidazol-2-yl)phenyl)azanediyl)bis(ethane-2,1-diyl) Diacetate] | – | – | – | 101% | 95% | 73% | 2% |
| NC(=O)CC(NCC1CCCCC1)c1ccc2c(c1)nc(-c1ccc(N3CCOCC3)cc1)n2Cc1ccc(OC(F)(F)F)cc1 (stereo not drawn) [LLS80, 3-((cyclohexylmethyl)amino)-3-(2-(4-morpholinophenyl)-1-(4-(trifluoromethoxy)benzyl)-1H-benzo[d]imidazol-5-yl)propanamide] | – | – | – | 86% | 25% | 6% | 0% |

— US10844052B2, “LLS compounds for treatment of cancer” (THE REGENTS OF THE UNIVERSITY OF CALIFORNIA, priority 2016, dated 2020)
